According to patent publication US20230113802A1, “COMPOSITION AND METHOD TO PREPARE LONG-ACTING INJECTABLE SUSPENSION CONTAINING MULTIPLE CANCER DRUGS” (University of Washington, priority 2020, published 2023):
Read-outs that look alike come from different tables or passages of the source.

What was measured:
MOLT-4 cells = test: AlamarBlue cell growth inhibition, MOLT-4; assay type: cell-based; conditions: Homo sapiens, 120 h; for IC50: MOLT-4, five days, read-out: IC50 (sensitivity); for EC50: Molt-4 (Bcl-2 +, BTK −), 5 days, read-out: Inhibitory effects (EC50)
Protocol: K-562 cells (human leukemia) were purchased from ATCC (Manassas, USA). Additional human leukemic cell lines, MOLT-4 and HL-60, were a generous gift from Carrie Cummings at Fred Hutchinson Cancer Research Center (Seattle, USA). All cells were cultured in Gibco RPMI medium 1640 with Gibco 1% 100×Antibiotic-Antimycotic (Thermo Fisher Scientific, Waltham, USA) and 10% fetal bovine serum. Cells were selected for their different protein expression levels of Bruton's Tyrosine Kinase (BTK) and B Cell Lymphoma 2 (Bcl-2); HL-60 cells express both BTK and Bcl-2, while K-562 and MOLT-4 cells only express BTK and Bcl-2, respectively.
Each cell line was seeded separately into Costar® Black 96-well Assay Plates (Corning USA). Within 1 hr, varying concentrations of individual free drug (ABT-199 or BGB-3111), a combination of both free drugs (w/w 1:1), or a combination of drugs within DcNP's were added to the cells. Following a 5-day incubation, growth of treated cells was compared to untreated cells, quantified using an AlamarBlue Cell Viability Assay (Thermo Fisher Scientific, Waltham, USA) with a PerkinElmer 1420 Multilabel Counter plate reader. Prism graphing software (GraphPad) was used to analyze the absorbance data and to assess relative cell growth.
The effects of DcNP formulation on the effectiveness of ABT-199 and BGB-3111 to inhibit cells that express Bcl-2 and BTK targets is shown in Table 6. Three immortalized human cell lines were selected based on their expression of Bcl-2 (B-cell lymphoma 2; target of venetoclax) and BTK (Bruton's tyrosine kinase; target of zanubrutinib). Cell lines were seeded in 96-well plates at 75,000 cells per well. In separate sets of wells, venetoclax and zanubrutinib were incubated with the cells for 5 days individually as free drug, together as free drug, and together as the drug combination nanoformulation. An AlamarBlue assay was performed to determine relative inhibition of cell growth due to drug presence.

[1] = GT localization in healthy versus 4T1 tumor bearing lung tissue; assay type: in vivo, BALB/c mice; conditions: for concentration at 1 h / concentration at 24 h / Kp at 1 h / Kp at 24 h: female, BALB/c, mouse, intravenous; for concentration at 24 h / Kp at 24 h: 24 hours after DcNP; for Kp at 1 h / Kp at 24 h: lung/plasma, read-out: Lung/Plasma Ratio
Protocol: Female BALB/c mice were injected with 2×10^5 4 T1 metastatic breast cancer cells that express luciferase as a marker intravenously by tail vein on day 0. Stable expression of luciferase in these cells allows for bioluminescent monitoring of tumor growth and metastasis. Over a 14-day period, mouse behavior and health conditions were monitored daily and body weight measurements were taken every 2 days. […] The bioluminescence imaging was acquired through a XENOGEN IVIS 200 imaging system (PerkinElmer, Waltham, Mass.). The bioluminescence imaging parameters for live mice were set as follows: field of view, 24; excitation filter, closed; emission filter, open; exposure time, 180 sec; binning factor, 4; f/stop, 2. Bioluminescence intensity from mice were integrated using Live Image software (PerkinElmer, Waltham, Mass.). Mice were then intravenously administered GT in DcNPs at a dose of 50 mg/kg G and 5 mg/kg T or the same dose of drug in control suspension (CrEL) and sacrificed at fixed time points.
To determine whether DcNPs enhance GT distribution into target tissues, namely cancer nodules, the differential localization of GT in DcNP or CrEL form in healthy versus cancer nodule bearing mice was investigated. Since lungs are a common metastatic site for breast cancer disease progression, a model for metastasis that forms cancer nodules in the lungs was used. Cancer nodules were established in female BALB/c mice via intravenous inoculation of syngeneic breast cancer cells (4T1). […] Once nodules were established and confirmed with IVIS imaging, mice were administered with GT in either DcNP or conventionally solubilized form at equivalent doses (50/5 mg/kg, GT) and euthanized at pre-determined time intervals. Nodule-free and nodule-bearing lungs were harvested, and lung tissue drug concentrations were compared in these two groups.

[2] = Pharmacokinetic study of GT in DcNPs compared to CrEL (Example 2), plasma G, T and dFdU; assay type: in vivo, BALB/c mice; conditions: for MRT / concentration at 3 h / AUC(0-inf) / C0 / half-life / Vd: female, BALB/c, mouse, plasma; for MRT: read-out: MRT (mean residence time); for concentration at 3 h: intravenous; for C0: read-out: C0 (concentration at time 0, back extrapolated); for half-life: read-out: T1/2,app (converted); for Vd: read-out: Vss
Text: Drugs extracted from biological matrices such as plasma or tissue homogenates were quantified by a Shimadzu HPLC system coupled to a 3200 QTRAP mass spectrometer (Applied Biosystems, Grand Island, N.Y.). The HPLC system consisted of two Shimadzu LC-20A pumps, a DGU-20A5 degasser, and a Shimadzu SIL-20AC HT autosampler. The mass spectrometer was equipped with an electrospray ionization (ESI) TurbolonSpray source. The system was operated with Analyst software, version 1.5.2 (ABSciex, Framingham, Mass.). Chromatographic separation of G and T was achieved using a Synergi column (100×2.0 mm; 4-μm particle size) (Phenomenex, Torrance, Calif.) with an inline C8 guard column (4.0×2.0 mm) also from Phenomenex. The flow rate was set to 0.5 mL/min with a 5 μl sample injection volume. The mobile phase for separation consisted of pump A (20 mM Ammonium Acetate in water) and B (Reagent Alcohol). […] The needle was washed with isopropanol after each injection. Analytes were monitored using multiple-reaction monitoring (MRM) for positive ions.
Statistical comparisons were performed using 2-sided t-tests with Welch's correction for unequal variances. Significance probability α was set at 0.05. Pharmacokinetic parameters from non-compartmental analysis were calculated using the trapezoidal rule and relevant pharmacokinetic equations shown in Table 3.

[3] = iv, 50 mg/kg, Control (CrEL suspension), 50/5 mg/kg G/T IV, mice
[4] = iv, 50 mg/kg, GT DcNP, 50/5 mg/kg G/T IV, mice

Question: For CC1(C)CCC(CN2CCN(c3ccc(C(=O)NS(=O)(=O)c4ccc(NCC5CCOCC5)c([N+](=O)[O-])c4)c(Oc4cnc5[nH]ccc5c4)c3)CC2)=C(c2ccc(Cl)cc2)C1 [Venetoclax, 4-[4-[[2-(4-chlorophenyl)-4,4-dimethylcyclohexen-1-yl]methyl]piperazin-1-yl]-N-[3-nitro-4-(oxan-4-ylmethylamino)phenyl]sulfonyl-2-(1H-pyrrolo[2,3-b]pyridin-5-yloxy)benzamide], which IC50 (MOLT-4 cells) is on record?
Answer: 1.96 µg/mL

Question: What about the EC50 (MOLT-4 cells) of the same compound?
Answer: 2 µg/mL

Question: What does the source list for C=CC(=O)N1CCC([C@@H]2CCNc3c(C(N)=O)c(-c4ccc(Oc5ccccc5)cc4)nn32)CC1 [Zanubrutinib, (7S)-2-(4-phenoxyphenyl)-7-(1-prop-2-enoylpiperidin-4-yl)-4,5,6,7-tetrahydropyrazolo[1,5-a]pyrimidine-3-carboxamide]?
Answer: IC50 (MOLT-4 cells): 4 µg/mL; EC50 (MOLT-4 cells): 4 µg/mL

Question: What does the source list for Nc1ccn([C@@H]2O[C@H](CO)[C@@H](O)C2(F)F)c(=O)n1 [Gemcitabine, 4-amino-1-[(2R,4R,5R)-3,3-difluoro-4-hydroxy-5-(hydroxymethyl)oxolan-2-yl]pyrimidin-2-one]?
Answer: lung-to-plasma ratio, cancer nodule bearing mice times greater than healthy ([1]; 24 hours after GT DcNP): 5 times; concentration at 1 h ([1]; lung, 1 hour after DcNP, 4T1 tumor bearing mice, read-out: Lung): 12500 ± 4900 ng/g; concentration at 1 h ([1]; lung, 1 hour after DcNP, Healthy mice, 50/5 mg/kg GT IV, read-out: Lung): 7500 ± 1200 ng/g; concentration at 1 h ([1]; lung, 1 hour after control (CrEL), 4T1 tumor bearing mice, 50/5 mg/kg GT IV, read-out: Lung): 6000 ± 800 ng/g; concentration at 1 h ([1]; lung, 1 hour after control (CrEL), Healthy mice, 50/5 mg/kg GT IV, geometric mean ± SD, read-out: Lung): 900 ± 400 ng/g; concentration at 24 h ([1]; lung, 4T1 tumor bearing mice, read-out: Lung): 3500 ± 1000 ng/g; concentration at 24 h ([1]; lung, Healthy mice, read-out: Lung): 300 ± 100 ng/g; Kp at 1 h ([1]; 1 hour after DcNP, 4T1 tumor bearing mice): 0.2 ± 0.1; Kp at 1 h ([1]; 1 hour after DcNP, Healthy mice): 0.1 ± 0.2; Kp at 1 h ([1]; 1 hour after control (CrEL), 4T1 tumor bearing mice): 2.2 ± 1.4; Kp at 1 h ([1]; 1 hour after control (CrEL), Healthy mice): 0.9 ± 0.3; Kp at 24 h ([1]; 4T1 tumor bearing mice): 0.1 ± 0.03; Kp at 24 h ([1]; Healthy mice): 0.02 ± 0.01; concentration at 1 h ([1]; plasma, 1 hour after DcNP, 4T1 tumor bearing mice, read-out: Plasma): 72600 ± 60000 ng/mL; concentration at 1 h ([1]; plasma, 1 hour after DcNP, Healthy mice, read-out: Plasma): 52200 ± 64000 ng/mL; concentration at 1 h ([1]; plasma, 1 hour after control (CrEL), 4T1 tumor bearing mice, read-out: Plasma): 2800 ± 1400 ng/mL; concentration at 1 h ([1]; plasma, 1 hour after control (CrEL), Healthy mice, read-out: Plasma): 900 ± 200 ng/mL; concentration at 24 h ([1]; plasma, 4T1 tumor bearing mice, read-out: Plasma): 34200 ± 600 ng/mL; concentration at 24 h ([1]; plasma, Healthy mice, read-out: Plasma): 12700 ± 1500 ng/mL; AUC0 to ∞ Ratio (DcNP to control) ([2]; 50/5 mg/kg G/T IV, mice): 61.0; C0 Ratio (DcNP to control) ([2]; 50/5 mg/kg G/T IV, mice): 1.1; Dose/AUC Ratio (DcNP to control) ([2]; 50/5 mg/kg G/T IV, mice): 0.02; MRT Ratio (DcNP to control) ([2]; 50/5 mg/kg G/T IV, mice): 45.2; T1/2,app Ratio (DcNP to control) ([2]; 50/5 mg/kg G/T IV, mice): 8.6; Vss Ratio (DcNP to control) ([2]; 50/5 mg/kg G/T IV, mice): 0.7; plasma concentration at 3 hours, DcNP times greater than CrEL ([2]; 50/5 mg/kg G/T IV, mice): 470 times; AUC0 to ∞ Ratio (DcNP to control) ([2]; 50/5 mg/kg G/T IV, mice, listed as G): 61; AUC0 to ∞ Ratio (DcNP to control) ([2]; 50/5 mg/kg G/T IV, mice, listed as gemcitabine): 50; Dose/AUC (apparent clearance) ([2]; Control (CrEL suspension), 50/5 mg/kg G/T IV, mice): 65.2 mL/h; G to dFdU ratio in plasma at 6 hours ([2]; CrEL control dosage form): 0.01; difference in mean residence times of G and T after DcNP administration ([2]; GT DcNP): 11.3 fold; Dose/AUC (apparent clearance) ([2]; GT DcNP, 50/5 mg/kg G/T IV, mice): 1.1 mL/h; plasma concentration within 15 minutes ([2]; after GT in CrEL control dosage form IV, mice): 12023.5 ng/mL; mean plasma concentration at 3 hours ([2]; after control CrEL dosing, 50/5 mg/kg G/T IV, mice, listed as G): 87.3 ng/mL; MRT ([2]; 50 mg/kg, Control (CrEL suspension), 50/5 mg/kg G/T IV, mice): 0.25 h; concentration at 3 h ([2]; after GT DcNP dosing, 50/5 mg/kg G/T IV, mice): 41100 ng/mL; concentration at 3 h ([2]; after control CrEL dosing, 50/5 mg/kg G/T IV, mice): 87.3 ng/mL; AUC(0-inf) [2, 3]: 15.3 µg·h/mL; C0 [2, 3]: 165 µg/mL; half-life [2, 3]: 96 min; Vd [2, 3]: 0.0166 L; AUC(0-inf) [2, 4]: 937 µg·h/mL; C0 [2, 4]: 181 µg/mL; MRT [2, 4]: 11.3 h; half-life [2, 4]: 822 min; Vd [2, 4]: 0.0121 L; half-life ([2]; iv, GT DcNP, 50/5 mg/kg G/T IV, mice): 823 min; time over which concentrations in plasma were detected ([2]; mice administered GT DcNPs, 48-hour study): ≥ 48 h; plasma concentration by 24 hours ([2]; mice treated with the CrEL control formulation): fell below the detection limit
